Counter-ions that a name gives are not always drawn.
Assays:
[1] = cited from earlier work
[2] = Solubility of the vardenafil form employed in 10 ml of physiological saline at 25° C.; format: physicochemical
Excerpt: Accordingly, the present invention provides a vardenafil-comprising drug formulation, which is characterized in that the solubility of the form of vardenafil employed in a small amount of aqueous liquid is sufficiently high and the dissolution rate of the formulation disintegrating in the mouth is sufficiently rapid.

| Compound | bioavailability ([1]; known property of vardenafil, oral) | time after administration at which the rapid decrease in the plasma concentration occurs ([1]; oral administration of vardenafil) | amount of the active compound form that dissolves in 10 ml of physiological saline ([2]; 10 ml physiological saline, amount offered = tablet dose corresponding to 10 mg of vardenafil, hydrochloride trihydrate) | dissolved amount expressed as vardenafil ([2]; 10 ml physiological saline, dose 11.85 mg vardenafil hydrochloride trihydrate) | share of the active compound employed that dissolves in 10 ml of physiological saline ([2]; dose 5.93 mg vardenafil hydrochloride trihydrate (5 mg vardenafil)) | share of the dose of the active compound employed that dissolves in 10 ml of physiological saline ([2]; dose corresponding to 10 mg of vardenafil, hydrochloride trihydrate) |
| --- | --- | --- | --- | --- | --- | --- |
| CCCc1nc(C)c2c(=O)[nH]c(-c3cc(S(=O)(=O)N4CCN(CC)CC4)ccc3OCC)nn12 [vardenafil] | about 14% | about 1 hour | – | – | – | – |
| CCCc1nc(C)c2c(=O)[nH]c(-c3cc(S(=O)(=O)N4CCN(CC)CC4)ccc3OCC)nn12 [vardenafil hydrochloride trihydrate] | – | – | about 10.4 mg | 8.8 mg | 91% | 88% |
